Experimental data taken from US9051300B2, “Herbicides” (Syngenta Limited, priority 2009, dated 2015).

What was measured:
Assay type in all cases: in vivo
[1] = tested on: Echinochloa crus-galli (ECHCG); experiment: Pre-emergence herbicidal activity, glasshouse pot test; settings: rate not printed (columns shifted), evaluated after 13 days, 100=total damage to plant, 0=no damage
Procedure: (§1) Seeds of a variety of test species are sown in standard soil in pots. After cultivation for one day (pre-emergence) or after 8 days cultivation (post-emergence) under controlled conditions in a glasshouse (at 24/16° C., day/night; 14 hours light; 65% humidity), the plants are sprayed with an aqueous spray solution derived from the formulation of the technical active ingredient in acetone/water (50:50) solution containing 0.5% Tween 20 (polyoxyethylene sorbitan monolaurate, CAS RN 9005-64-5). The test plants are then grown in a glasshouse under controlled conditions in a glasshouse (at 24/16° C., day/night; 14 hours light; 65% humidity) and watered twice daily. After 13 days for pre and post-emergence, the test is evaluated (100=total damage to plant; 0=no damage to plant). Lolium perenne (LOLPE), Alopecurus myosuroides (ALOMY), Echinochloa crus-galli (ECHCG), Avena fatua (AVEFA) Pre-Emergence Activity

Avena fatua (AVEFA) [2] = experiment: as above; settings: rate not printed (columns shifted), evaluated after 13 days, 100=total damage to plant, 0=no damage
Procedure: as §1

Lolium perenne (LOLPE) [3] = experiment: as above; settings: rate not printed (columns shifted), evaluated after 13 days, 100=total damage to plant, 0=no damage
Procedure: as §1

[4] = tested on: Alopecurus myosuroides (ALOMY); experiment: as above; settings: rate not printed (columns shifted), evaluated after 13 days, 100=total damage to plant, 0=no damage
Procedure: as §1

[5] = tested on: Winter Wheat variety 'Hereward'; experiment: Crop damage to winter wheat seed treated with safener cloquintocet mexyl, post-emergence spray; settings: 250 g/ha, seed treated with cloquintocet mexyl 0.5 g/kg seed, evaluated after 13 days, 100=total damage, 0=no damage
Procedure: Seeds of the Winter Wheat variety ‘Hereward’ were seed treated with a wettable powder formulation of the cereal herbicide safener, cloquintocet mexyl, at a rate of 0.5 grams per kilogram of dry seed prior to the initiation of glasshouse testing. One seed was sown per 1.5 inch plastic pot into a sandy loam soil at a depth of 1 cm, 8 days prior to application of the test compounds and was watered and grown under controlled conditions in a glasshouse (at 24/16° C., day/night; 14 hours light; 65% humidity). The plants were sprayed post-emergence with an aqueous spray solution derived from the formulation of the technical active ingredient in acetone/water (50:50) solution containing 0.5% Tween 20 (polyoxyethylene sorbitan monolaurate, CAS RN 9005-64-5). The test plants were then grown in a glasshouse under controlled conditions in a glasshouse (at 24/16° C., day/night; 14 hours light; 65% humidity) and watered twice daily. After 13 days for pre and post-emergence, the test was evaluated (100=total damage to plant; 0=no damage to plant).

[6] = tested on: Winter Wheat variety 'Hereward'; experiment: Crop damage to winter wheat, post-emergence spray; settings: 250 g/ha, no safener, evaluated after 13 days, 100=total damage to plant, 0=no damage
Procedure: Seeds of the Winter Wheat variety ‘Hereward’ were sown in standard soil in pots. After 8 days cultivation under controlled conditions in a glasshouse (at 24/16° C., day/night; 14 hours light; 65% humidity), the plants were sprayed post-emergence with an aqueous spray solution derived from the formulation of the technical active ingredient in acetone/water (50:50) solution containing 0.5% Tween 20 (polyoxyethylene sorbitan monolaurate, CAS RN 9005-64-5). The test plants were then grown in a glasshouse under controlled conditions in a glasshouse (at 24/16° C., day/night; 14 hours light; 65% humidity) and watered twice daily. After 13 days for pre and post-emergence, the test was evaluated (100=total damage to plant; 0=no damage to plant).

[7] = tested on: Echinochloa crus-galli (ECHCG); experiment: Post-emergence herbicidal activity, glasshouse pot test; settings: 312 h, evaluated after 13 days, 100=total damage to plant, 0=no damage
Procedure: as §1, with “Post-Emergence” for “Pre-Emergence”

Avena fatua (AVEFA) [8] = experiment: as above; settings: 312 h, evaluated after 13 days, 100=total damage to plant, 0=no damage
Procedure: as §1, with “Post-Emergence” for “Pre-Emergence”

Lolium perenne (LOLPE) [9] = experiment: as above; settings: 312 h, evaluated after 13 days, 100=total damage to plant, 0=no damage
Procedure: as §1, with “Post-Emergence” for “Pre-Emergence”

[10] = tested on: Alopecurus myosuroides (ALOMY); experiment: as above; settings: 312 h, evaluated after 13 days, 100=total damage to plant, 0=no damage
Procedure: as §1, with “Post-Emergence” for “Pre-Emergence”

| SMILES | Pre-Emergence Activity ECHCG (damage to plant) [1] | Pre-Emergence Activity AVEFA (damage to plant) (Avena fatua (AVEFA) [2]) | Pre-Emergence Activity LOLPE (damage to plant) (Lolium perenne (LOLPE) [3]) | Pre-Emergence Activity ALOMY (damage to plant) [4] | Winter Wheat (Hereward) + cloquintocet mexyl (damage to plant) [5] | Winter Wheat (Hereward) (damage to plant) [6] | pest or weed control at 250 g/ha [7] | pest or weed control at 250 g/ha (Avena fatua (AVEFA) [8]) | pest or weed control at 250 g/ha (Lolium perenne (LOLPE) [9]) | pest or weed control at 250 g/ha [10] |
| --- | --- | --- | --- | --- | --- | --- | --- | --- | --- | --- |
| Cc1cc(-c2ccc(Cl)cc2)nn1C1C(=O)C/C(=C\c2ccc(F)cn2)C1=O (centres unmarked) [Compound A21] | 90 | 10 | 90 | 40 | 10 | 20 | 90% | 30% | 60% | 70% |
| Cc1sc(-c2ccc(C(C)C)cc2)nc1C1C(=O)C/C(=C\C2CCOCC2)C1=O (centres unmarked) [Compound A1] | 50 | 0 | 10 | 10 | 0 | 20 | 10% | 0% | 0% | 10% |
| Cc1sc(-c2ccc(Cl)cc2)nc1C1C(=O)CC(Cc2ccc(F)cn2)C1=O (centres unmarked) [Compound A12] | 100 | 90 | 100 | 100 | 80 | 70 | 100% | 90% | 100% | 100% |
| Cc1sc(-c2ccccc2)nc1C1C(=O)CC(CC2CCOCC2)C1=O (centres unmarked) [Compound A17] | 100 | 50 | 100 | 70 | 40 | 60 | 100% | 90% | 100% | 90% |
| Cc1cnc(-c2ccc(Cl)cc2)nc1C1C(=O)CC(CC2CCOCC2)C1=O (centres unmarked) [Compound A8] | 100 | 60 | 80 | 50 | 0 | 20 | 90% | 50% | 50% | 50% |
| Cc1sc(-c2ccc(Cl)cc2)nc1C1C(=O)C/C(=C\C2CCOCC2)C1=O (centres unmarked) [Compound A24] | 100 | 60 | 100 | 60 | 0 | 70 | 100% | 90% | 90% | 100% |
| CCc1sc(-c2ccc(Cl)cc2)nc1C1C(=O)C/C(=C\C2CCOCC2)C1=O (centres unmarked) [Compound A7] | 100 | 70 | 80 | 70 | 40 | 90 | 100% | 100% | 60% | 90% |
| Cc1sc(-c2ccc(Cl)cc2)nc1C1C(=O)CC(Cc2ccccn2)C1=O (centres unmarked) [Compound A16] | 100 | 80 | 90 | 90 | 60 | 60 | 100% | 100% | 100% | 90% |
